Measured values reported in patent US20120289577A1, “COMPOSITION FOR TREATING OR PREVENTING HEARING LOSS COMPRISING NAPHTHOQUINONE-BASED COMPOUNDS” (KT&G LIFE SCIENCES CORPORATION, priority 2009, published 2012).

Legend:
HSP60 [1] = assay: Release amounts of HSP60 in mice by ELISA; type: in vivo
Experimental: (§1) It is generally known that HSP60 in mitochondria is released outside of the cells to bind to TLR2 or TLR4, thereby inducing strong inflammation. Accordingly, the release amounts of HSP60 in mice and HEI-OC1 cells were measured by the ELISA method.

[2] = system: outer and inner hair cells of Corti's organ explants; assay: Explants of the Corti's organ, shape and arrangement of hair cells; type: cell-based
HSP60 [3] = assay: Release amounts of HSP60 in HEI-OC1 cells by ELISA; type: cell-based
Experimental: as §1

HSP60 [4] = assay: Location variation of HSP60 by cell staining; type: cell-based
From the text: Also, location variation of HSP60 was identified by cell staining.

[5] = system: TNF-α, IL-6, HSP60, TLR2 and TLR4 expression in HEI-OC1 cells; assay: Expression of inflammation mediators by the PCR method; type: cell-based
HMGB1 [6] = assay: Extracellular release of HMGB1 by ELISA; type: cell-based
From the text: HMGB1 is, together with HSP60, known as an important mediator for the activation of TLRs and the resulting inflammation. Accordingly, the extracellular release of HMGB1 was identified by the ELISA method.

6-week-old C57BL/6 mice = type: in vivo; details: β-lapachone (10, 20 and 40 mg/kg/day) and cisplatin for 4 days, p<0.05
Experimental: 6-week-old C57BL/6 mice were bred in an axenic (germfree) animal facility maintaining constant temperature (22 to 26° C.) and humidity (55 to 60%).
The comparison of the ABR thresholds between groups was conducted by one-way analysis of variance (ANOVA) and P value of 0.05 or less was regarded as being significant.

[7] = system: HEI-OC1 auditory hair cell line; type: cell-based; details: β-lapachone 30 minutes before treating with cisplatin, p<0.05
HMGB1 [8] = assay: HMGB1 expression in inner ear by tissue staining; type: in vivo; details: 21-month-old mice, compared to control and CR groups
Experimental: In order to identify an effect of β-lapachone against the expression of HMGB1 which is known to be important for the damage and shape variation of mitochondria, a tissue staining was conducted.

[9] = system: outer and inner hair cells of the inner ear; assay: TUNEL identification of hair cell damage in inner ear; type: in vivo; details: 24-month-old mice, βL group vs control group
From the text: In order to identify damage of hair cells, the inner ears of the lab animals were enucleated and subject to terminal deoxynucleotidyl transferase-mediated dUTP nick end-labeling (TUNEL) from the top of cochlea to middle circular part thereof, followed by analyzing TUNEL positive cells using a fluorescence microscope.

mitochondria = assay: Shape variations of mitochondria by transmission electron microscope (TEM); type: in vivo; details: 24-month-old mice, compared to 2-month-old lab animals
From the text: Also, in order to identify inhibition of age-related mitochondria damage by β-lapachone, the shape variations of mitochondria were detected for three groups of 24-month-old lab animals using a transmission electron microscope (TEM).

[10] = system: C57BL/6 mice (age-related hearing loss model); assay: Auditory brainstem response (ABR) threshold in animal model with age-related presbycusis; type: in vivo; details: for ABR threshold: feed containing 0.06% β-lapachone; for recovery of ABR thresholds in comparison with the control group: p<0.05
Experimental: C57BL/6 mice which are well known as a age-related hearing loss model were used for this experiment. 12-month-old C57BL/6 mice were directly purchased from Central Lab. Animal Inc. (Seoul, Korea), and bred up to 24 months of age with measuring hearing loss every 3 months. All mice used in this experiment were bred in an axenic (germfree) animal facility maintaining constant temperature (22 to 26° C.) and humidity (55 to 60%).
All experiments were conducted for groups divided into a control group freely providing normal feed, caloric restriction (CR) group limiting dietary to 70%, and βL group providing feed containing 0.06% β-lapachone (compound 1).
In order to evaluate auditory brainstem response, all lab animals were intramuscularly injected with a mixture of xylazine (5 mg/kg) and ketamine for anesthesia and the variation of auditory brainstem response threshold was measured using a TDT system (Tucker-Davis Technologies, FL, USA) in a soundproof room.
An insertable ear tip (3.5 mm, Nicolet Biomedical, Inc.) was placed in the external auditory meatus, electrodes were placed at scalp vertex (active electrode), the mastoid region of the ear of interest (reference electrode) and the mastoid region of the opposite ear (ground electrode), and the threshold of ABS was measured by starting with 90 dB HL intensity and then sequentially decreasing the intensity by 10 dB at 4, 8, 16 and 32 kHz.
There was no arousal response and death due to respiratory depression during the ABR test. The comparison of the ABR thresholds between groups was conducted by one-way analysis of variance (ANOVA) and P value of 0.05 or less was regarded as being significant.

[11] = HEI-OC1 cells treated with cisplatin

Compound: N.N.[Cl][Pt][Cl] [cisplatin, reference compound]
- release amounts of HSP60 (HSP60 [1]; mice treated with cisplatin, p<0.05): significantly increased release amounts of HSP60
- shape and arrangement of the outer and inner hair cells ([2]; treated with cisplatin): shape and arrangement of the outer and inner hair cells were changed
- release amounts of HSP60 (HSP60 [3]; HEI-OC1 cells treated with cisplatin, p<0.05): significantly increased release amounts of HSP60
- location of HSP60 (HSP60 [4]; cells treated with cisplatin): HSP60 was almost expressed in cytoplasm
- expression of inflammation mediators (TNF-α, IL-6, HSP60, TLR2, TLR4) [5, 11]: increased expression of inflammation-inducing cytokines such as TNF-α, IL-6 and HSP60 and inflammation mediators such as TLR2 and TLR4
- extracellular release of HMGB1 (HMGB1 [6]; [11]): extracellular release of excessive amounts of HMGB1

Compound: CC1(C)CCC2=C(O1)c1ccccc1C(=O)C2=O [β-lapachone]
- recovery of ABR thresholds as compared to the CDDP group (6-week-old C57BL/6 mice): statistically significant recovery at all regions
- protection from apoptosis by cisplatin (cell viability, MTT) [7]: protected the apoptosis by cisplatin in a concentration-dependent manner
- release amounts of HSP60 (HSP60 [1]; mice treated with both β-lapachone and cisplatin): decreased release amounts of HSP60 in a β-lapachone concentration-dependent manner
- shape and arrangement of the auditory hair cells ([2]; treated with both β-lapachone and cisplatin): maintained the shape and arrangement of the auditory hair cells similar to the control group
- expression of HMGB1 in the inner ear (HMGB1 [8]): significantly decreased expression of HMGB1
- release amounts of HSP60 (HSP60 [3]; HEI-OC1 cells treated with both β-lapachone and cisplatin): decreased release amounts of HSP60 in a β-lapachone concentration-dependent manner
- age-related apoptosis (TUNEL positive cells) in inner ear [9]: significantly inhibited the age-related apoptosis in the whole inner ear
- number and shape of mitochondria (TEM) (mitochondria): number and shape of mitochondria similar to the 2-month-old lab animals
- ABR threshold ([10]; 15-month-old mice, 4 kHz): 63.33±11.55 dB SPL
- ABR threshold ([10]; 15-month-old mice, 8 kHz): 33.33±15.28 dB SPL
- ABR threshold ([10]; 15-month-old mice, 16 kHz): 46.67±5.77 dB SPL
- ABR threshold ([10]; 15-month-old mice, 32 kHz): 53.33±5.77 dB SPL
- ABR threshold ([10]; 18-month-old mice, 4 kHz): 80±0 dB SPL
- ABR threshold ([10]; 18-month-old mice, 8 kHz): 46.67±11.55 dB SPL
- ABR threshold ([10]; 18-month-old mice, 16 kHz): 56.67±11.55 dB SPL
- ABR threshold ([10]; 18-month-old mice, 32 kHz): 66.67±11.55 dB SPL
- recovery of ABR thresholds in comparison with the control group ([10]; 21-month-old mice, 4, 8, 16 and 32 kHz): statistically significant recovery at regions except for 16 kHz
- ABR threshold ([10]; 21-month-old mice, 4 kHz): 56.67±5.77 dB SPL
- ABR threshold ([10]; 21-month-old mice, 8 kHz): 46.67±5.77 dB SPL
- ABR threshold ([10]; 21-month-old mice, 16 kHz): 53.33±15.28 dB SPL
- ABR threshold ([10]; 21-month-old mice, 32 kHz): 46.67±5.77 dB SPL
- recovery of ABR thresholds in comparison with the control group ([10]; 24-month-old mice, 4, 8, 16 and 32 kHz): statistically significant recovery at all regions
- recovery of ABR threshold in comparison with the control group ([10]; 24-month-old mice, at 8 to 32 kHz except for 4 kHz): no less than 30 dB SPL
- ABR threshold ([10]; 24-month-old mice, 4 kHz): 73.33±5.77 dB SPL
- ABR threshold ([10]; 24-month-old mice, 8 kHz): 43.33±5.77 dB SPL
- ABR threshold ([10]; 24-month-old mice, 16 kHz): 53.33±5.77 dB SPL
- ABR threshold ([10]; 24-month-old mice, 32 kHz): 53.33±11.55 dB SPL
- location of HSP60 (HSP60 [4]; cells treated with both β-lapachone and cisplatin): HSP60 was expressed in only mitochondria like the normal cells
- expression of inflammation mediators by cisplatin (TNF-α, IL-6, HSP60, TLR2, TLR4) ([5]; HEI-OC1 cells, β-lapachone 30 minutes before cisplatin): inhibited by β-lapachone in a concentration-dependent manner
- extracellular release amounts of HMGB1 (HMGB1 [6]; HEI-OC1 cells treated with cisplatin and β-lapachone, p<0.05): the release amounts decreased in a β-lapachone concentration-dependent manner
